Patent US20090209568A1, “Spiro [Benzopyran] or Spiro [Benzofuran] Derivatives Which Inhibit the Sigma Receptor” (priority 2006, published 2009)

What was measured:
[1] = system: capsaicin-induced mechanical allodynia; test: Effect on capsaicin in development of mechanical allodynia (von Frey filaments); format: in vivo; conditions: 16 mg/kg i.p., mice, 1 μg capsaicin into paw, von Frey mechanical stimulus
Experimental: This model uses the von-Frey Filaments and is a model to test the effects or symptoms of neuropathic pain, allodynia etc. […] The test protocol for all tests with von Frey filaments: After habituation mice were first treated with the test-compound (or solvent in controls). Then 1 μg capsaicin (1% DMSO) is injected into their paw resulting in developing pain in the effected paw. The effected paw is then treated with a mechanical stimulus and the latency time before the paw is withdrawn is measured.

σ1-receptor = molecular target: T1, σ1-receptor (Cavia porcellus, UniProt Q60492); test: Sigma-1 receptor radioligand binding, [3H](+)pentazocine (Version A / Version B); parameters: species or system guinea pig; conditions: guinea pig brain membranes; for inhibition at 0.1 µM: compound 10^−7 M; for inhibition at 0.01 µM: compound 10^−8 M
T1 construct: guinea pig brains were homogenized in 10 vols; (w/v) of Tris-HCl 50 mM 0.32 M sucrose; from tissue; host or cells: guinea pig brain membranes
T1 sequence (Q60492 whole entry): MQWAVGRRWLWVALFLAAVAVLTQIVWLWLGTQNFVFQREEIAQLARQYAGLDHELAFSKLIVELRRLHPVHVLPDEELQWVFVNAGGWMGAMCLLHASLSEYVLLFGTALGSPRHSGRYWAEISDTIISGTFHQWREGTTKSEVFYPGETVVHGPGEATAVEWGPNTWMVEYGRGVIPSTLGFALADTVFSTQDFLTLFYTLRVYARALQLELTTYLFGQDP
Experimental: Brain membrane preparation and binding assays for the σ1-receptor were performed as described (DeHaven-Hudkins et al., 1992) with some modifications. In brief, guinea pig brains were homogenized in 10 vols. (w/v) of Tris-HCl 50 mM 0.32 M sucrose, pH 7.4, with a Kinematica Polytron PT 3000 at 15000 r.p.m. for 30 s. The homogenate was centrifuged at 1000 g for 10 min at 4° C. and the supernatants collected and centrifuged again at 48000 g for 15 min at 4° C. The pellet was resuspended in 10 volumes of Tris-HCl buffer (50 mM, pH 7.4), incubated at 37° C. for 30 min, and centrifuged at 48000 g for 20 min at 4° C. Following this, the pellet was resuspended in fresh Tris-HCl buffer (50 mM, pH 7.4) and stored on ice until use.
Each assay tube contained 10 μL of [^3H](+)pentazocine (final concentration of 0.5 nM), 900 μL of the tissue suspension to a final assay volume of 1 mL and a final tissue concentration of approximately 30 mg tissue net weight/mL. Non-specific binding was defined by addition of a final concentration of 1 μM haloperidol. All tubes were incubated at 37° C. for 150 min before termination of the reaction by rapid filtration over Schleicher & Schuell GF 3362 glass fibre filters [previously soaked in a solution of 0.5% polyethylenimine for at least 1 h]. Filters were then washed with four times with 4 mL of cold Tris-HCl buffer (50 mM, pH 7.4). Following addition of scintillation cocktail, the samples were allowed to equilibrate overnight. The amount of bound radioactivity was determined by liquid scintillation spectrometry using a Wallac Winspectral 1414 liquid scintillation counter. Protein concentrations were determined by the method of Lowry et al. (1951).
In brief the σ1-receptor preparation was prepared from guinea pig brain. The brains were homogenized in 5 to 6 times of volume sucrose solution (0.32M) and homogenized. The homogenate was centrifuged at 2900 rpm, 4° C., 10 min). the supernatant was centrifuged again (23500×g, 4° C., 20 min). The pellet was resuspended in Tris-buffer, incubated for 30 min at room temperature and centrifuged f (23500×g, 4° C., 20 min). The pellet was resuspended in cold TRIS-buffer and homogenized. Then the protein content was measured (approx. 1.5 mg/mL) and the homogenate frozen at −80° C. for later use.
The radioligand used was [^3H]-(+)-Pentazocin in TRIS-buffer. In a volume of 200 μL 50 μL TRIS-buffer, 50 μL compound solution of varying concentration, 50 μL radioligand-solution (8 nM; resulting in 2 nM in the assay) and finally 50 μL of receptor preparation (approx. 1.5 mg/mL) were given into a well of a microplate equipped with a filter. The plate was closed and stirred for 2.5 h at 37° C. and 500 rpm. Following that the solvents were removed by a harvester through the filter. After rinsing with H2O the filter was measured in a scintillation counter ([^3H]-protocol).

Row | inhibition at 0.1 µM (σ1-receptor) | inhibition at 0.01 µM (σ1-receptor) | SMILES | % of pain relief [1]
1 | 52% | 29% | CCCCN1CCC2(C1)OC(OC)Cc1ccccc12 (mixture of isomers) [Example 22, cis/trans-1′-Butyl-3-methoxy-3,4-dihydrospiro[[2]benzopyran-1,3′-pyrrolidin]] | 45.67±9.62%
2 | 88% | 22.2% | COC1OC2(CCN(Cc3ccccc3)C2)c2ccccc21 (mixture of isomers) [Example 25, cis/trans-1′-Benzyl-3-methoxy-3H-spiro[[2]benzofuran-1,3′-pyrrolidin]] | 44.28±9.49%
